Data reported in patent US6737383B1, “Herbicidal oxadiazolidines” (priority 1999, dated 2004).

What was measured:
bedstraw = experiment: Test B pre/postemergence bedstraw; format: in vivo, Galium aparine
In short: (§1)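 Herbicidal effect was estimated by eye on a ten-point control scale after plants spent twelve to sixteen days in a greenhouse following soil or foliar treatment. Foliar sprays targeted plants at one to four leaves; all doses were formulated in a non-phytotoxic solvent with surfactant.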

blackgrass = experiment: Test B pre/postemergence blackgrass; format: in vivo, Alopecurus myosuroides
In short: as §1

surinam grass = experiment: Test B pre/postemergence surinam grass; format: in vivo, Brachiaria decumbens; conditions: Postemergence
In short: as §1

cocklebur = experiment: Test B pre/postemergence cocklebur; format: in vivo, Xanthium strumarium
In short: as §1

corn = experiment: Test B pre/postemergence corn; format: in vivo, Zea mays
In short: as §1

crabgrass = experiment: Test B pre/postemergence crabgrass; format: in vivo, Digitaria sanguinalis
In short: as §1

giant foxtail = experiment: Test B pre/postemergence giant foxtail; format: in vivo, Setaria faberii
In short: as §1

morningglory = experiment: Test B pre/postemergence morningglory; format: in vivo, Ipomoea hederacea
In short: as §1

pigweed = experiment: Test B pre/postemergence pigweed; format: in vivo, Amaranthus retroflexus
In short: as §1

rape = experiment: Test B pre/postemergence rape; format: in vivo, Brassica napus
In short: as §1

soybean = experiment: Test B pre/postemergence soybean; format: in vivo, Glycine max
In short: as §1

sugar beet = experiment: Test B pre/postemergence sugar beet; format: in vivo, Beta vulgaris
In short: as §1

velvetleaf = experiment: Test B pre/postemergence velvetleaf; format: in vivo, Abutilon theophrasti
In short: as §1

wheat = experiment: Test B pre/postemergence wheat; format: in vivo, Triticum aestivum
In short: as §1

wild oat = experiment: Test B pre/postemergence wild oat; format: in vivo, Avena fatua
In short: as §1

purple nutsedge = experiment: Test B pre/postemergence purple nutsedge; format: in vivo, Cyperus rotundus
In short: as §1

[1] = Postemergence, Rate 62 g/ha, scale 0 to 10, 0 is no effect, 10 is complete control
[2] = Postemergence, Rate 125 g/ha, scale of 0 to 10 where 0 is no effect and 10 is complete control
[3] = Preemergence, Rate 125 g/ha, scale of 0 to 10 where 0 is no effect and 10 is complete control
[4] = Preemergence, Rate 250 g/ha, scale 0 (no effect) to 10 (complete control)
[5] = Rate 62 g/ha, Preemergence, scale 0 to 10
[6] = Rate 250 g/ha, Postemergence, scale 0 to 10, 0 is no effect, 10 is complete control
[7] = Rate 500 g/ha, Postemergence, scale 0 to 10, 0 is no effect, 10 is complete control
[8] = Rate 500 g/ha, Preemergence, scale 0 to 10 (0 no effect, 10 complete control)

CC(C)N(C(=O)n1oc(=O)n(C(C)C(=S)N(C)C)c1=O)c1ccc(F)cc1F (stereo not shown) [Compound 739]
10: Plant response rating, Bedstraw (bedstraw; [3]) | Bedstraw plant response rating (bedstraw; [4]) | Bedstraw plant response rating (bedstraw; [8]) | Blackgrass plant response rating (blackgrass; [8]) | Crabgrass plant response rating (crabgrass; [8]) | Giant foxtail plant response rating (giant foxtail; [8]) | Redroot pigweed plant response rating (pigweed; [8])
0: Bedstraw plant response rating (bedstraw; [5]) | Plant response rating, Blackgrass (blackgrass; [1]) | Plant response rating, B. signalgrass (surinam grass; Rate 62 g/ha, scale 0 to 10, 0 is no effect, 10 is complete control) | Plant response rating, Cocklebur (cocklebur; [3]) | Cocklebur plant response rating (cocklebur; [4]) | Cocklebur plant response rating (cocklebur; [5]) | Cocklebur plant response rating (cocklebur; [8]) | Plant response rating, Corn (corn; [1]) | Corn plant response rating (corn; [2]) | Plant response rating, Corn (corn; [3]) | Corn plant response rating (corn; [5]) | Corn plant response rating (corn; [6]) | Corn plant response rating (corn; [7]) | Plant response rating, Morningglory (morningglory; [3]) | Morningglory plant response rating (morningglory; [4]) | Morningglory plant response rating (morningglory; [5]) | Morningglory plant response rating (morningglory; [8]) | Plant response rating, Redroot pigweed (pigweed; [1]) | Plant response rating, Rape (rape; [1]) | Rape plant response rating (rape; [2]) | Plant response rating, Rape (rape; [3]) | Rape plant response rating (rape; [4]) | Rape plant response rating (rape; [5]) | Rape plant response rating (rape; [6]) | Plant response rating, Soybean (soybean; [3]) | Soybean plant response rating (soybean; [4]) | Soybean plant response rating (soybean; [5]) | Soybean plant response rating (soybean; [8]) | Plant response rating, Velvetleaf (velvetleaf; [1]) | Velvetleaf plant response rating (velvetleaf; [2]) | Plant response rating, Velvetleaf (velvetleaf; [3]) | Velvetleaf plant response rating (velvetleaf; [5]) | Velvetleaf plant response rating (velvetleaf; [6]) | Plant response rating, Wheat (wheat; [1]) | Wheat plant response rating (wheat; [2]) | Plant response rating, Wheat (wheat; [3]) | Wheat plant response rating (wheat; [4]) | Wheat plant response rating (wheat; [5]) | Plant response rating, Wild oats (wild oat; [1]) | Wild oats plant response rating (wild oat; [2]) | Plant response rating, Wild oats (wild oat; [3]) | Wild oats plant response rating (wild oat; [4]) | Wild oats plant response rating (wild oat; [5]) | Wild oats plant response rating (wild oat; [6]) | Wild oats plant response rating (wild oat; [7]) | Plant response rating, Nutsedge (purple nutsedge; [1]) | Plant response rating, Nutsedge (purple nutsedge; [3]) | Nutsedge plant response rating (purple nutsedge; [4]) | Nutsedge plant response rating (purple nutsedge; [5]) | Nutsedge plant response rating (purple nutsedge; [6]) | Nutsedge plant response rating (purple nutsedge; [8])
9: Crabgrass plant response rating (crabgrass; [2]) | Crabgrass plant response rating (crabgrass; [4]) | Crabgrass plant response rating (crabgrass; [7]) | Giant foxtail plant response rating (giant foxtail; [2]) | Plant response rating, Giant foxtail (giant foxtail; [3]) | Giant foxtail plant response rating (giant foxtail; [4]) | Giant foxtail plant response rating (giant foxtail; [5]) | Giant foxtail plant response rating (giant foxtail; [6]) | Giant foxtail plant response rating (giant foxtail; [7]) | Redroot pigweed plant response rating (pigweed; [4])
3: Plant response rating, Bedstraw (bedstraw; [1]) | Bedstraw plant response rating (bedstraw; [2]) | Blackgrass plant response rating (blackgrass; [2]) | Plant response rating, Blackgrass (blackgrass; [3]) | Blackgrass plant response rating (blackgrass; [4]) | Blackgrass plant response rating (blackgrass; [6]) | Cocklebur plant response rating (cocklebur; [7]) | Redroot pigweed plant response rating (pigweed; [2]) | Redroot pigweed plant response rating (pigweed; [6]) | Plant response rating, Soybean (soybean; [1]) | Soybean plant response rating (soybean; [2]) | Plant response rating, Sugarbeets (sugar beet; [1]) | Sugarbeets plant response rating (sugar beet; [2]) | Sugarbeets plant response rating (sugar beet; [6]) | Velvetleaf plant response rating (velvetleaf; [7]) | Velvetleaf plant response rating (velvetleaf; [8]) | Wheat plant response rating (wheat; [8]) | Nutsedge plant response rating (purple nutsedge; [7])
2: Blackgrass plant response rating (blackgrass; [5]) | B. signalgrass plant response rating (surinam grass; Rate 125 g/ha, scale of 0 to 10 where 0 is no effect and 10 is complete control) | B. signalgrass plant response rating (surinam grass; Rate 250 g/ha, scale 0 to 10, 0 is no effect, 10 is complete control) | Plant response rating, Cocklebur (cocklebur; [1]) | Cocklebur plant response rating (cocklebur; [2]) | Cocklebur plant response rating (cocklebur; [6]) | Corn plant response rating (corn; [4]) | Corn plant response rating (corn; [8]) | Plant response rating, Crabgrass (crabgrass; [3]) | Crabgrass plant response rating (crabgrass; [5]) | Plant response rating, Redroot pigweed (pigweed; [3]) | Redroot pigweed plant response rating (pigweed; [5]) | Rape plant response rating (rape; [7]) | Rape plant response rating (rape; [8]) | Plant response rating, Sugarbeets (sugar beet; [3]) | Sugarbeets plant response rating (sugar beet; [4]) | Sugarbeets plant response rating (sugar beet; [5]) | Velvetleaf plant response rating (velvetleaf; [4]) | Wheat plant response rating (wheat; [6])
7: B. signalgrass plant response rating (surinam grass; Rate 500 g/ha, scale 0 to 10, 0 is no effect, 10 is complete control) | Plant response rating, Giant foxtail (giant foxtail; [1])
4: Bedstraw plant response rating (bedstraw; [6]) | Plant response rating, Crabgrass (crabgrass; [1]) | Soybean plant response rating (soybean; [6]) | Sugarbeets plant response rating (sugar beet; [7]) | Sugarbeets plant response rating (sugar beet; [8]) | Wild oats plant response rating (wild oat; [8])
6: Bedstraw plant response rating (bedstraw; [7]) | Blackgrass plant response rating (blackgrass; [7]) | Plant response rating, Morningglory (morningglory; [1]) | Morningglory plant response rating (morningglory; [6]) | Wheat plant response rating (wheat; [7])
5: Redroot pigweed plant response rating (pigweed; [7]) | Soybean plant response rating (soybean; [7])
8: Morningglory plant response rating (morningglory; [7])
